Reference: patent publication US20080269326A1, “Use of 1-Phenyl-3-Dimethylamino-propane Compounds for Treating Neuropathic Pain” (GRUENENTHAL GmbH, priority 2007, published 2008)

How the values were obtained:
Assay type in all cases: in vivo, rat
[1] = system: cold allodynia in Bennett animals; assay: Bennett model (chronic constriction injury), cold allodynia on 4° C. cold metal plate
Procedure: The effectiveness in treating neuropathic pain was investigated in the Bennett model (chronic constriction injury; Bennett and Xie, 1988, Pain 33: 87-107).
Sprague-Dawley rats weighing 140-160 g are provided with four loose ligatures of the right sciatic nerve under nembutal narcosis. The animals develop a hypersensitivity in the paw innervated by the damaged nerve, which after a healing phase of one week is quantified over about four weeks by means of a 4° C. cold metal plate (cold allodynia). The animals are observed for two minutes on this plate and the number of retractive movements of the damaged paw are measured. The effect of the substance is determined with reference to the base value before application of the substance, at four different times over a period of one hour(15, 30, 45 and 60 minutes after application) and the resultant area under the curve (AUD) as well as the inhibition of cold allodynia at the individual measurement points is expressed in percent effect with reference to the vehicle control (AUD) and to the initial value (individual measurement points). The cohort size is n=10.

[2] = system: mechanical hyperalgesia in diabetic animals; assay: Streptozotocin diabetic neuropathy, mechanical hyperalgesia (Randall and Sellito); details: diabetic rats
Procedure: Male Sprague-Dawley rats weighing 160-180 g received an intra-peritoneal injection of streptozotocin (75 mg/kg body weight) dissolved in pH 4.6 citrate buffer. One week later diabetic animals were identified by measuring the blood glucose level, and those with a blood glucose level of ≧17 mM were included in the study. Three and four weeks after administration of streptozotocin the mechanical reaction threshold was measured in diabetic animals by the method of Randall and Sellito (1957 Arch. Int. Pharmacody. […]:409-419) before (pre-test) and at various times after administration of the test substance or vehicle (post-test). […] The maximum pressure exerted on the rear paw was 250 g. The end point of the mechanical reaction threshold in grams was determined based on the reaction of the animal (withdrawal of the rear paw, vocalisation or evasive reaction). The size of the cohort in the individual dose stages was n=10. The maximum possible response in percent (% MPE=% of maximum possible effect) was calculated according to the formula:
% MPE=(post-test−pre-test)/(250−pre-test)×100.
ED50 values (dose at which 50% maximum inhibition occurred) were determined by regression analysis from the % MPE values at the time of the maximum effect.

[3] = system: mononeuropathic pain, withdrawal threshold of rear paw; assay: Mononeuropathy (spinal nerve ligature, SNL), withdrawal threshold by electronic von Frey filament
Procedure: Male Sprague Dawley rats (140-180g, Janvier, France) are kept under standard conditions (06.00-18.00 hours light, 18.00-06.00 hours darkness; 20°-24° C. room temperature; 35-70% relative atmospheric humidity, tap water and standard feed as desired) in groups of five animals in Macrolon type 4 cages.
Under pentobarbital narcosis (Narcoren, 60 mg/kg i.p., Merial GmbH, Germany) the spinal nerves L5 and L6 are tightly bound unilaterally on the left side with a silk thread (NC silk black, USP 5/0, metric 1, Braun Melsungen A G, Germany) (Kim and Chung, Pain 1992; 50: 355-63). After the operation the animals were allowed to recover for one week and within this time developed a hypersensitivity on the ipsilateral (left) paw. The hypersensitivity to a pressure stimulus can be measured using an electronic von Frey filament (Somedic, Sweden). For this purpose the animals are placed on a grating under a hood. After the animals became accustomed to the surroundings the damaged (ipsilateral, left) and undamaged (contralateral, right) rear paws are subjected to increasing pressure on the underside of the paw until the animal tries to retract the corresponding paw. The median value of five tests defines the withdrawal threshold of a test time point. The animals are tested on both rear paws before and at various times after administration of the substance or vehicle. For each animal the difference between the test value and pre-test for the ipsilateral and contralateral side is determined, and the result is expressed as the mean value (MW) and standard error of the mean (SEM) for the groups consisting in each case of 10 animals. The difference between the mean difference values of the ipsilateral and contralateral side defines the hypersensitivity induced by mononeuropathy. The statistical significance of the effect of a substance is determined on the basis of the difference values compared to the vehicle group for the ipsilateral and contralateral side, by means of bifactorial variance analysis and post hoc analysis according to Bonferroni.

## CC[C@@H](c1cccc(O)c1)[C@@H](C)CN(C)C [Compound 9, (1R,2R)-3-(3-dimethylamino-1-ethyl-2-methylpropyl)-phenol]
[1]; 10 mg/kg i.p.
  Cold allodynia (% AUD) Naïve animals: 49.3 % AUD
[1]; 21.5 mg/kg i.p.
  Cold allodynia (% AUD) Naïve animals: 53.4 % AUD
[1]; Rattus norvegicus, ip, rats
  ED50: 13 mg/kg
[2]; Rattus norvegicus, ip, i.p., read-out: Mechanical hyperalgesia ED50 (95% confidence region)
  ED50: 8.9 mg/kg
[2]; 31.6 mg/kg i.p.
  Mechanical hyperalgesia Maximum effect in % MPE: 100% (31.6 mg/kg) % MPE
[2]; i.p.
  maximum effect compared among the tested compounds: highest maximum effect
[3]; 0.1 mg/kg i.v., Contra, 30 min
  withdrawal threshold, test value - pre-test value (MW): 0.06 g
[3]; 0.1 mg/kg i.v., Contra, 60 min
  withdrawal threshold, test value - pre-test value (MW): -3.13 g
[3]; 0.1 mg/kg i.v., Contra, 180 min
  withdrawal threshold, test value - pre-test value (MW): -4.30 g
[3]; 0.1 mg/kg i.v., Ipsi, 30 min
  withdrawal threshold, test value - pre-test value (MW): 1.74 g
[3]; 0.1 mg/kg i.v., Ipsi, 60 min
  withdrawal threshold, test value - pre-test value (MW): -0.59 g
[3]; 0.1 mg/kg i.v., Ipsi, 180 min
  withdrawal threshold, test value - pre-test value (MW): -2.24 g
[3]; 0.316 mg/kg i.v., Contra, 30 min
  withdrawal threshold, test value - pre-test value (MW): 0.39 g
[3]; 0.316 mg/kg i.v., Contra, 60 min
  withdrawal threshold, test value - pre-test value (MW): ta −6.20 g
[3]; 0.316 mg/kg i.v., Contra, 180 min
  withdrawal threshold, test value - pre-test value (MW): 2.21 g
[3]; 0.316 mg/kg i.v., Ipsi, 30 min
  withdrawal threshold, test value - pre-test value (MW): 5.78 g
[3]; 0.316 mg/kg i.v., Ipsi, 60 min
  withdrawal threshold, test value - pre-test value (MW): 2.21 g
[3]; 0.316 mg/kg i.v., Ipsi, 180 min
  withdrawal threshold, test value - pre-test value (MW): 1.68 g
[3]; 1 mg/kg i.v., Contra, 30 min
  withdrawal threshold, test value - pre-test value (MW): 2.90 g
[3]; 1 mg/kg i.v., Contra, 60 min
  withdrawal threshold, test value - pre-test value (MW): 2.45 g
[3]; 1 mg/kg i.v., Contra, 180 min
  withdrawal threshold, test value - pre-test value (MW): -6.65 g
[3]; 1 mg/kg i.v., Ipsi, 30 min
  withdrawal threshold, test value - pre-test value (MW): 12.86 g
[3]; 1 mg/kg i.v., Ipsi, 60 min
  withdrawal threshold, test value - pre-test value (MW): 7.09 g
[3]; 1 mg/kg i.v., Ipsi, 180 min
  withdrawal threshold, test value - pre-test value (MW): 2.01 g
[3]; 3.16 mg/kg i.v., Contra, 30 min
  withdrawal threshold, test value - pre-test value (MW): 8.02 g
[3]; 3.16 mg/kg i.v., Contra, 60 min
  withdrawal threshold, test value - pre-test value (MW): 2.85 g
[3]; 3.16 mg/kg i.v., Contra, 180 min
  withdrawal threshold, test value - pre-test value (MW): -0.34 g
[3]; 3.16 mg/kg i.v., Ipsi, 30 min
  withdrawal threshold, test value - pre-test value (MW): 18.43 g
[3]; 3.16 mg/kg i.v., Ipsi, 60 min
  withdrawal threshold, test value - pre-test value (MW): 20.32 g
[3]; 3.16 mg/kg i.v., Ipsi, 180 min
  withdrawal threshold, test value - pre-test value (MW): 11.06 g
[3]; 10 mg/kg i.v., Contra, 30 min
  withdrawal threshold, test value - pre-test value (MW): 31.85 g
[3]; 10 mg/kg i.v., Contra, 60 min
  withdrawal threshold, test value - pre-test value (MW): 10.62 g
[3]; 10 mg/kg i.v., Contra, 180 min
  withdrawal threshold, test value - pre-test value (MW): 4.51 g
[3]; 10 mg/kg i.v., Ipsi, 60 min
  withdrawal threshold, test value - pre-test value (MW): [drawing 7] 19.47 g
[3]; 10 mg/kg i.v., Ipsi, 180 min
  withdrawal threshold, test value - pre-test value (MW): 13.65 g
[3]; 10 mg/kg i.v., after 30 minutes, ipsilateral
  inhibition of the mononeuropathically-induced withdrawal threshold reduction: full inhibition
[3]; i.v., contralateral withdrawal threshold
  statistically significant minimal effective dose: 10 mg/kg
[3]; i.v., ipsilateral rear paw, mononeuropathic rats
  statistically significant minimal effective dose: 1 mg/kg
[3]; i.v., mononeuropathic pain model
  dosage at which complete inhibition is reached: 10 mg/kg
